# Results reported in US11464749B2, “Bismuth-thiol compositions and methods of use” (Microbion Corporation, priority 2018, dated 2022).
# Where “and” joins values, the source holds several entries; their conditions need not be identical. Equal entries are not always repeated. Where two headings read alike, the source gives them in different places.
# Tests used:
# Escherichia coli = assay: Broth microdilution MIC (Example 11)
# B. cepacia = assay: FIC checkerboard assay; type: cell-based; settings: Burkholderia cepacia, Meropenem alone (checkerboard with BisEDT), read-out: Drug B MIC
# [1] = test system: Staphylococcus aureus (MRSA); assay: Broth microdilution MIC (Example 11)
# S. pyogenes = assay: Broth microdilution MIC (Example 11); settings: Streptococcus pyogenes
# B. cenocepacia = assay: FIC checkerboard assay; type: cell-based; settings: for FICB: FIC of Meropenem in combination with BisEDT; for FICB / MICB: per checkerboard row; for MICB: MIC of Meropenem in combination with BisEDT; for MIC: Burkholderia cenocepacia, Meropenem alone (panel with BisEDT), read-out: Drug B MIC
# E. faecalis = assay: Broth microdilution MIC (Example 11); settings: Enterococcus faecalis, VRE, VRE Lev^R Cip^R Ery^R
# Pseudomonas aeruginosa = assay: Broth microdilution MIC (Example 11); settings: Pseudomonas aeruginosa
# S. agalactiae = assay: Broth microdilution MIC (Example 11); settings: Streptococcus agalactiae
# Acinetobacter baumannii = assay: Broth microdilution MIC (Example 11); settings: Acinetobacter baumannii
# P. aeruginosa = assay: FIC checkerboard assay; type: cell-based; settings: for MIC: Pseudomonas aeruginosa
# Klebsiella pneumoniae = assay: Broth microdilution MIC (Example 11)
# Enterobacter cloacae = assay: Broth microdilution MIC (Example 11); settings: ATCCBAA2468
compound,measurement,setting,value
"C[C@@H](O)[C@H]1C(=O)N2C(C(=O)O)=C(S[C@@H]3CN[C@H](C(=O)N(C)C)C3)[C@H](C)[C@H]12 [Meropenem, reference compound]",MIC,"Escherichia coli; ATCC25922, E. coli MMX 102 (ATCC 25922), QC",0.03 µg/mL
same,MIC,"Escherichia coli; ATCCBAA2469, E. coli MMX 5980 (ATCC BAA-2469), NDM-1, Lev^R, MEM^R, CAZ^R, Gm^R",32 µg/mL
same,MIC,"Escherichia coli; E. coli MMX 8423, ESBL, Lev^R, CAZ^R, Gm^R",0.03 µg/mL
same,MIC,"Escherichia coli; E. coli MMX 8424, ESBL, CAZ^R",0.03 µg/mL
same,MIC,"Escherichia coli; E. coli MMX 8425, ESBL, Lev^R, CAZ^R, Gm^R",0.015 µg/mL
same,MIC,B. cepacia; B. cepacia 546,4 µg/mL
same,MIC,B. cepacia; B. cepacia 1793,4 µg/mL
same,MIC,"[1]; ATCC29213|MRSA|MSSA, S. aureus MMX 101 (ATCC 29213), QC, MSSA",0.06 µg/mL
same,MIC,"[1]; MRSA, S. aureus MMX 5373, MRSA Lev^R Cip^R CC^R Ery^R Ox^R",32 µg/mL
same,MIC,"[1]; MRSA, S. aureus MMX 6311, MRSA Lev^R Cip^R CC^R Ery^R Ox^R",8 µg/mL
same,MIC,"[1]; MRSA, S. aureus MMX 9203, MRSA Lev^R Cip^R Ery^R Ox^R",4 µg/mL
same,MIC,"[1]; MRSA, S. aureus MMX 9204, MRSA Lev^R Cip^R Ery^R Ox^R",4 µg/mL
same,MIC,"[1]; MRSA, S. aureus MMX 9205, MRSA Lev^R Cip^R CC^R Ery^R Ox^R",64 µg/mL
same,MIC,"S. pyogenes; S. pyogenes MMX 3068, Ery^R",≤ 0.008 µg/mL
same,MIC,"S. pyogenes; S. pyogenes MMX 3820, ERY^R CLI^R",≤ 0.008 µg/mL
same,MIC,"S. pyogenes; S. pyogenes MMX 3919, ERY^R",≤ 0.008 µg/mL
same,MIC,"S. pyogenes; S. pyogenes MMX 3929, ERY^R CC^R",≤ 0.008 µg/mL
same,MIC,"S. pyogenes; S. pyogenes MMX 5091, ERY^R CC^R",≤ 0.008 µg/mL
same,FICB,B. cenocepacia; B. cenocepacia 548,0.5 and 1
same,MICB,B. cenocepacia; B. cenocepacia 548,2 µg/mL and 4 µg/mL
same,FICB,B. cenocepacia; B. cenocepacia 813,0.5 and 1
same,MICB,B. cenocepacia; B. cenocepacia 813,1 µg/mL and 2 µg/mL
same,MIC,B. cenocepacia; B. cenocepacia 548,4 µg/mL
same,MIC,B. cenocepacia; B. cenocepacia 813,2 µg/mL
same,MIC,E. faecalis; E. faecalis MMX 8960,8 µg/mL
same,MIC,E. faecalis; E. faecalis MMX 8961,8 µg/mL
same,MIC,E. faecalis; E. faecalis MMX 8962,2 µg/mL
same,MIC,"Pseudomonas aeruginosa; ATCC27853, P. aeruginosa MMX 103 (ATCC 27853), QC",0.5 µg/mL
same,MIC,"Pseudomonas aeruginosa; P. aeruginosa MMX 1381, MDR, Lev^R, Cip^R, MEM^R, CAZ^R",16 µg/mL
same,MIC,"Pseudomonas aeruginosa; P. aeruginosa MMX 2562, MDR, Lev^R, Cip^R, MEM^R, CAZ^R",32 µg/mL
same,MIC,"Pseudomonas aeruginosa; P. aeruginosa MMX 3991, MDR, Lev^R, Cip^R, MEM^R, CAZ^R",16 µg/mL
same,MIC,"Pseudomonas aeruginosa; P. aeruginosa MMX 4654, IMP-7, Lev^R, Cip^R, MEM^R, CAZ^R",> 64 µg/mL
same,MIC,"Pseudomonas aeruginosa; P. aeruginosa MMX 4697, VIM-2, Lev^R, Cip^R, MEM^R, CAZ^R",8 µg/mL
same,MIC,"S. agalactiae; S. agalactiae MMX 3741, ERY^R CC^R",0.03 µg/mL
same,MIC,"S. agalactiae; S. agalactiae MMX 3743, ERY^R CC^R",0.06 µg/mL
same,MIC,"S. agalactiae; S. agalactiae MMX 4077, ERY^R CC^R",0.06 µg/mL
same,MIC,"S. agalactiae; S. agalactiae MMX 4079, ERY^R CC^R Pen^R MEM^R",8 µg/mL
same,MIC,"S. agalactiae; S. agalactiae MMX 4086, ERY^R CC^R",0.06 µg/mL
same,MIC,"Acinetobacter baumannii; A. baumannii MMX 2592, MDR, Lev^R, Cip^R, MEM^R, CAZ^R, Gm^R",64 µg/mL
same,MIC,"Acinetobacter baumannii; A. baumannii MMX 2593, MDR, Lev^R, Cip^R, MEM^R, CAZ^R, Gm^R",64 µg/mL
same,MIC,"Acinetobacter baumannii; A. baumannii MMX 3372, MDR, Cip^R, MEM^I, CAZ^I",4 µg/mL
same,MIC,"Acinetobacter baumannii; A. baumannii MMX 3373, Sensitive",0.5 µg/mL
same,MIC,"Acinetobacter baumannii; NCTC13304, A. baumannii MMX 4651 (NCTC 13304), MDR, OXA-27, Lev^R, Cip^R, MEM^R, CAZ^R, Gm^I",64 µg/mL
same,MICB (Drug B in combination),"P. aeruginosa; P. aeruginosa 6322, with BisEDT, checkerboard rows C-G",16 µg/mL
same,MIC,"P. aeruginosa; P. aeruginosa 6322, checkerboard panel BisEDT/Meropenem, read-out: Drug B MIC (alone)",16 µg/mL
same,MIC,"P. aeruginosa; P. aeruginosa 6977, Meropenem alone (checkerboard with BisEDT), read-out: Drug B MIC",8 µg/mL
same,MIC,"P. aeruginosa; P. aeruginosa 7745, Meropenem alone (checkerboard with BisEDT), read-out: Drug B MIC",16 µg/mL
same,MIC,"P. aeruginosa; P. aeruginosa 8798, Meropenem alone (checkerboard with BisEDT), read-out: Drug B MIC",32 µg/mL
same,MIC,"P. aeruginosa; P. aeruginosa 9108, Meropenem alone (checkerboard with BisEDT), read-out: Drug B MIC",1 µg/mL
same,MIC,"Klebsiella pneumoniae; K. pneumoniae MMX 4622, KPC-2, MEM^R, CAZ^R",> 64 µg/mL
same,MIC,"Klebsiella pneumoniae; K. pneumoniae MMX 4623, KPC-2, MEM^R, CAZ^R, GM^R",> 64 µg/mL
same,MIC,"Klebsiella pneumoniae; K. pneumoniae MMX 4653, KPC-3, Lev^R, MEM^R, CAZ^R",> 64 µg/mL
same,MIC,"Klebsiella pneumoniae; K. pneumoniae MMX 4683, KPC-2, Lev^R, MEM^R, CAZ^R",32 µg/mL
same,MIC,"Klebsiella pneumoniae; K. pneumoniae MMX 4684, ESBL, MEM^R",8 µg/mL
same,MIC,"Klebsiella pneumoniae; K. pneumoniae MMX 4685, ESBL, Lev^R, MEM^R, CAZ^R",4 µg/mL
same,MIC,"Klebsiella pneumoniae; K. pneumoniae MMX 4694, KPC-3, Lev^R, MEM^R, CAZ^R",32 µg/mL
same,MIC,"Klebsiella pneumoniae; K. pneumoniae MMX 5979, NDM-1, Lev^R, MEM^R, CAZ^R, Gm^R",> 64 µg/mL
same,MIC,Enterobacter cloacae,> 64 µg/mL
